According to patent US8415327B2, “Methods of and compositions for reducing cell death” (priority 2009, dated 2013):
“Also recorded” adds a separate entry of the source.

What was measured:
[1] = Sulfhydryl reducing activity (DTNB); type: biochemical
Protocol: Sulfhydryl reducing activity: Sulfhydryl reducing activity was measured with 5-5′-dithio-bis(2-nitrobenzoic acid) (DTNB), which undergoes a colorimetric change when its disulfide linkage is reduced. Reaction of various concentrations of dithiothreitol, tris(carboxyethyl)phosphine, PB1, or PB2 with 30 mM DTNB in methanol was carried out in buffer at pH 5, 7, and 9. The sulfhydryl reduction potentials of PB1 and PB2 were assessed both before and after borane deprotection with DABCO.

[2] = Superoxide scavenging (hydroethidine fluorescence, xanthine/xanthine oxidase); type: biochemical
Protocol: Superoxide scavenging: The ability of PB1 and PB2 to scavenge superoxide was quantified essentially as described ([…] et al., Invest. Opthalmol. Vis. Sci. 47:3878 (2006)). Essentially, fluorescence of hydroethidine was measured after exposure to superoxide generated by xanthine/xanthine oxidase, in the presence or absence of PB1, PB2, or polyethylene glycol-conjugated superoxide dismutase used as positive control.

RGC-5 cells [3] = assay: Rescue of RGC-5 cells from METC-active drugs (menadione, rotenone, antimycin A), calcein/propidium iodide viability assay; settings: for protection/rescue from death induced by menadione, rotenone and antimycin A: RGC-5 cells, 24 hours co-incubation; for viability (live cells compared to untreated controls): 24 hours; for rescue of RGC-5 cells at higher concentrations: most likely due to toxicity
Protocol: Cell Culture: RGC-5 cells were cultured in Dulbecco's modified Eagle's medium (DMEM) (Mediatech, Inc., Manassas, Va.). containing 1 g/L glucose, supplemented with 10% fetal bovine serum, 100 U/mL penicillin, and 100 μg/mL streptomycin (Mediatech, Inc.). Cells were passaged every 48 to 72 hours when cells were approximately 60 to 75% confluent, replated at a 1:20 dilution in a 75 cm^2 flask in 20 ml of cell culture media and incubated at 37° C. in humidified 5% CO2. Experiments were performed in duplicate or triplicate.
Cell Treatment and Assessment of Viability: Cells were plated in 96-well plates at a density of 60 cells/mm^2 in 50 μL of media. Approximately 24 hours after plating, 50 μL of media containing either menadione, rotenone, or antimycin A, either with or without PB1 and PB2, was added to the cells to generate the final concentrations of 10 nM, 1 μM, or 100 μM. Control wells received media containing vehicle alone. Following 24 hours of treatment, media was aspirated from wells using a 25-gauge needle and cells stained with calcein-AM (10 μg/mL) and propidium iodide (1 μg/mL) (both Invitrogen, Carlsbad, Calif.) in PBS for 30 minutes. The staining solution was aspirated using a 25-gauge needle and replaced with PBS. Three randomly chosen fields per well were photographed on an Axiovert 135 microscope under epifluorescence with a Nikon D70s digital SLR camera (Nikon, Melville, N.Y.) at a resolution of 3008×2000 pixels and an exposure time of 1.6 seconds. Live (calcein-positive) and dead (propidium iodide-positive) cells were assessed using Image) software. Pictures were batch analyzed using a macro containing the following actions: subtract background, threshold, erode, erode, watershed, and analyze particles between the sizes of 1000 pixels and infinity. […] Each experiment was analyzed with respect to its own set of controls to account for variation in passage number of the RGC-5 cells and small differences between batches of cryopreserved RGC-5 cells.
Statistics: Viability was assessed as number of live cells/mm^2, and compared to the untreated controls of each experiment. Means were compared using Student's unpaired t-test.
RGC-5 cells plated in 96-well plates were treated for 24 hours with the redox cycling agent menadione, the complex I inhibitor rotenone, or the complex III inhibitor antimycin A, at final concentrations ranging from 100 nM to 31.6 μM (menadione) or 1 μM to 316 μM (rotenone or antimycin A). […] RGC-5 cells were co-incubated with these mitochondrial electron transporter chain (METC)-drugs and the borane-phosphines PB1 or PB2 for 24 hours, followed by assessment of cell viability by calcein/propidium iodide assay. TCEP (100 μM) served as a positive control.

[4] = tested on: retinal endothelial cells; assay: Radiation-induced death of retinal endothelial cells, calcein-AM/propidium iodide viability assay; type: cell-based, murine; settings: for rescue: 1 μM at the time of irradiation, 72 hours; for radio-protection: administered before or at the time of irradiation
Protocol: Cell Culture: Murine endothelial cells were isolated from Immortomice, which express a temperature-sensitive Simian virus 40 large T antigen, using sheep anti-rat Dynabeads coated with the rat anti-mouse PECAM-1 monoclonal antibody MEC13.3. […] Irradiation and Viability Assays: The cells were plated onto 1% gelatin coated 96-well plates at a density of 2,000 cells per well. For irradiation, control and treatment groups were removed from the incubator. Treatment groups received single doses of radiation between 1 and 30 Gray using an irradiator containing ^137Cesium (JL Shepherd & Associates) using a rotating platform to ensure uniform delivery. Control groups were left at room temperature during irradiation of the treatment groups. PB1 or PB2 was administered 18 hours before, immediately before, or 18 hours after irradiation. Media was aspirated 48 or 72 hours after irradiation using a 30 gauge needle and the cells were incubated in staining containing calcein-AM and propidium iodide in PBS for 30 minutes at room temperature in the dark. Digital photomicrographs of the wells were taken at a total magnification of 200× on a Zeiss Axiovert inverted microscope under epifluorescence. Calcein-positive (viable) and propidium iodide-positive (dead) cells were counted using NIH ImageJ software. Statistical significance was determined using the Student's t-tests.

[5] = tested on: retinal endothelial cells; assay: Protection of retinal endothelial cells from H2O2 oxidative damage; type: cell-based, murine; settings: for most effective concentration against oxidative insults: tested at 1-1000 μM
Protocol: Cell Culture: Murine endothelial cells were cultured as described in Experiment 3. Endothelial cells were treated directly with high levels of H2O2 in the absence or presence of PB1 and PB2 at a concentrations of 1-1000 μM.

RGC-5 cells [6] = assay: Menadione-induced cell death in RGC-5 cells (calcein-AM viable cell count); type: cell-based; settings: for neuroprotection against menadione-induced cell death / effectiveness as neuroprotectant compared with PB3: RGC-5 cells; for % of the cells protected from menadione-induced cell death: 17.8 μM menadione, 24 hours; for effectiveness as neuroprotectant compared with PB3: menadione
Protocol: Cell Culture: Cells of RGC-5 (ATCC Deposit Accession No. PTA-6600), a neuronal cell line, were suspended in growth medium and plated in 96-well plates at a density of 2,000 cells per well. After 24 hours in culture, cells were treated with 17.8 μM menadione (Sigma-Aldrich, St. Louis, Mo.). Menadione creates oxidative stress resulting in cell death. PB3, PB4, or PB6 was added to the wells directly before menadione treatment. After 24 hours of menadione treatment, the cells were stained with calcein-AM and photographed.

Row | SMILES | disulfide reduction as mechanism of protection [1] | superoxide scavenging as mechanism of protection [2] | protection/rescue from death induced by menadione, rotenone and antimycin A (RGC-5 cells [3]) | rescue of RGC-5 cells at higher concentrations (RGC-5 cells [3]) | rescue ([4]; 3 Gy) [%] | radio-protection [4] | most effective concentration against oxidative insults ([5]; H2O2) [µM] | neuroprotection against menadione-induced cell death (RGC-5 cells [6]) | % of the cells protected from menadione-induced cell death (RGC-5 cells [6]; compound 1 μM) [%] | effectiveness as neuroprotectant compared with PB3 (RGC-5 cells [6]) | other results
1 | [BH3-][P+](CCC(=O)OC)(CCC(=O)OC)c1ccccc1 [PB1, bis(3-propionic acid methyl ester)phenylphosphine borane complex] | involves disulfide reduction | not superoxide scavenging | significant rescue; also recorded: significant protection | little or no rescue | 35 | effective radio-protectants | 1 |  |  |  | viability (live cells compared to untreated controls) (RGC-5 cells [3]; antimycin A, compound 100 μM, vs. 34±2% without compound): 74±4%; viability (live cells compared to untreated controls) (RGC-5 cells [3]; menadione, compound 100 μM, vs. 34±4% without compound): 83±5%; viability (live cells compared to untreated controls) (RGC-5 cells [3]; rotenone, PB1 concentration not restated (100 μM in preceding sentence), vs. 25±3% without compound): 36±3%; protection against radiation exposures ([4]; 100 nM, 18 hours after irradiation, all radiation exposures tested): significant protection; viable cell counts, % of non-irradiated control ([4]; 1 μM administered at the time of irradiation, 3 Gy, 72 hours after irradiation, 29±6% without compound): 54±6%; radiomitigation: change in viable cell counts ([4]; administered 18 hours after exposure to ionizing radiation up to 30 Gy): significant increases in viable cell counts; protection against radiation exposure ([4]; all PB1 treatment levels, 18 hours after irradiation, 30 Gy, p<0.05): significant protection; viable cell counts, % of control ([5]; H2O2, compound 1 μM, 24 hours, 4.2±1.1% without compound): 10.8±2.3%
2 | [BH3-][P+](CCC(=O)OC)(c1ccccc1)c1ccccc1 [PB2, (3-propionic acid methyl ester)diphenylphosphine borane complex] | involves disulfide reduction | not superoxide scavenging | significant rescue; also recorded: significant protection | little or no rescue | 46 | effective radio-protectants | 1 |  |  |  | toxicity to RGC-5 cells (RGC-5 cells [3]): toxic; viable cell counts, % of control ([5]; 1 µM): 9.0±1.6%
3 | B.CCCCCCOC(=O)CCP(CCC(=O)OCCCCCC)c1ccccc1 [PB3, bis(3-propionic acid hexyl ester)phenylphosphine borane complex] |  |  |  |  |  |  |  | neuroprotective | 46.4±16.8 |  | % of the cells protected from menadione-induced cell death (RGC-5 cells [6]; compound 10 μM): 38.3±12.2%; % of the cells protected from menadione-induced cell death (RGC-5 cells [6]; compound 100 μM): 30.9±4.3%
4 | [BH3-][P+](CCC(=O)OCCCCCC)(c1ccccc1)c1ccccc1 [PB4, (3-propionic acid hexyl ester)diphenylphosphine borane complex] |  |  |  |  |  |  |  | neuroprotective | 19.0±5.5 | less effective neuroprotectants than PB3 | 
5 | [BH3-][P+](CC(=O)NCC)(c1ccccc1)c1ccccc1 [PB6, (2-Ethyl acetamide)diphenylphosphine borane complex] |  |  |  |  |  |  |  | neuroprotective |  | less effective neuroprotectants than PB3 | % of the cells protected from menadione-induced cell death (RGC-5 cells [6]; compound 10 pM): 25.6±8.4%
